Laboratory results: patent publication US11702422B2, “Imidazopyridazines as modulators of IL-17” (Janssen Pharmaceutica NV, priority 2020, dated 2023)

Key:
[1] = molecular target: IL-17A(FLAG-Tagged): IL-17RA(His-Tagged) (Homo sapiens, UniProt Q16552, K93Q); test: IL-17A(FLAG-Tagged): IL-17RA(His-Tagged) Binding Disruption Eu-HTRF Assay; settings: IL-17A/IL-17RA binding disruption, simple average if tested more than once
Procedure, shortened: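 IC50 comes from a one-site competition fit of the HTRF 665/620 nm ratio. Compound dilutions (2-fold, 22 points) were held 1 h rt with FLAG-tagged IL-17A dimer, then His-tagged IL-17RA plus Eu-cryptate anti-FLAG and D2 anti-His antibodies were added for 2 h rt.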

[2] = system: IL-17A-induced G-CSF production in human normal keratinocyte (NHK); test: NHK Assay: IL-17A-induced G-CSF production in human normal keratinocytes; format: cell-based; settings: 24 h, adult normal human keratinocytes, IL-17A 5 ng/mL, simple average if tested more than once
Procedure, shortened: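 Compound is first combined with recombinant human IL-17A for 1 h at rt, and the mix is added to adult normal human keratinocytes so that IL-17A is 5 ng/mL. After 24 h at 37° C in 5% FBS, G-CSF released into the medium is read by HTRF and IC50 derived.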

Sequence of UniProt Q16552 (Q16552 with tags, fused parts or gaps K93Q): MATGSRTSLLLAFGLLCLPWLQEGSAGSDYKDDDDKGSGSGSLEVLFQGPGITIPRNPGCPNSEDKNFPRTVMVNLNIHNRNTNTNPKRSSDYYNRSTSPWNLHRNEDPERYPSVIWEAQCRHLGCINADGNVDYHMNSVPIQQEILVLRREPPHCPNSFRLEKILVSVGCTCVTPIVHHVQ

Structure (SMILES)	IC50 [1]	IC50 ([2]; Homo sapiens, Keratinocyte)	IC50 [2]
Cn1nccc1C(=O)N[C@H](c1cn2ncc(C(NC(=O)CC3CC(F)(F)C3)C3CC3)cc2n1)C1CCC(F)(F)CC1 (single isomer, unassigned) [Example 24, N—((S)-(7-((R*)-Cyclopropyl(2-(3,3-difluorocyclobutyl)acetamido)methyl)imidazo[1,2-b]pyridazin-2-yl)(4,4-difluorocyclohexyl)methyl)-1-methyl-1H-pyrazole-5-carboxamide]	63 nM	84 nM	–
O=C(CC1CC(F)(F)C1)NC(c1cnn2cc([C@@H](NC(=O)c3cnn(CC4CC4)n3)C3CCC(F)(F)CC3)nc2c1)C1CC1 (single isomer, unassigned) [Example 26, N—((S)-(7-((R*)-Cyclopropyl(2-(3,3-difluorocyclobutyl)acetamido)methyl)imidazo[1,2-b]pyridazin-2-yl)(4,4-difluorocyclohexyl)methyl)-2-(cyclopropylmethyl)-2H-1,2,3-triazole-4-carboxamide]	68 nM	230 nM	–
O=C(CCC(F)(F)F)NC(c1cnn2cc([C@@H](NC(=O)c3cnn(CC(F)(F)F)n3)C3CCC(F)(F)CC3)nc2c1)C1CC1 (single isomer, unassigned) [Example 27, N—((S)-(7-((R*)-Cyclopropyl(4,4,4-trifluorobutanamido)methyl)imidazo[1,2-b]pyridazin-2-yl)(4,4-difluorocyclohexyl)methyl)-2-(2,2,2-trifluoroethyl)-2H-1,2,3-triazole-4-carboxamide]	100 nM	650 nM	–
CC(C)(C)[C@@H](O)C(=O)NC(c1cnn2cc([C@@H](NC(=O)c3cnn(CC4CC4)n3)C3CCC(F)(F)CC3)nc2c1)C1CC1 (single isomer, unassigned) [Example 29, N—((S)-(7-((R*)-Cyclopropyl((R)-2-hydroxy-3,3-dimethylbutanamido)methyl)imidazo[1,2-b]pyridazin-2-yl)(4,4-difluorocyclohexyl)methyl)-2-(cyclopropylmethyl)-2H-1,2,3-triazole-4-carboxamide]	46 nM	370 nM	–
Cc1c(C(=O)N[C@H](c2cn3ncc(C(NC(=O)CC4CC(F)(F)C4)C4CC4)cc3n2)C2CCC(F)(F)CC2)cnn1CCC(F)(F)F (single isomer, unassigned) [Example 51, N—((S)-(7-((S*)-Cyclopropyl(2-(3,3-difluorocyclobutyl)acetamido)methyl)imidazo[1,2-b]pyridazin-2-yl)(4,4-difluorocyclohexyl)methyl)-5-methyl-1-(3,3,3-trifluoropropyl)-1H-pyrazole-4-carboxamide]	12000 nM	–	~18000 nM
Cc1c(C(=O)N[C@H](c2cn3ncc(C(NC(=O)CC4CC(F)(F)C4)C4CC4)cc3n2)C2CCC(F)(F)CC2)cnn1CCC(F)(F)F (single isomer, unassigned) [Example 52, N—((S)-(7-((R*)-Cyclopropyl(2-(3,3-difluorocyclobutyl)acetamido)methyl)imidazo[1,2-b]pyridazin-2-yl)(4,4-difluorocyclohexyl)methyl)-5-methyl-1-(3,3,3-trifluoropropyl)-1H-pyrazole-4-carboxamide]	280 nM	–	670 nM
Cc1c(C(=O)N[C@H](c2cn3ncc(C(NC(=O)CCC(F)(F)F)C4CC4)cc3n2)C2CCC(F)(F)CC2)cnn1CCC(F)(F)F (single isomer, unassigned) [Example 53, N—((S)-(7-((S*)-Cyclopropyl(4,4,4-trifluorobutanamido)methyl)imidazo[1,2-b]pyridazin-2-yl)(4,4-difluorocyclohexyl)methyl)-5-methyl-1-(3,3,3-trifluoropropyl)-1H-pyrazole-4-carboxamide]	11000 nM	–	> 20000 nM
Cc1c(C(=O)N[C@H](c2cn3ncc(C(NC(=O)CCC(F)(F)F)C4CC4)cc3n2)C2CCC(F)(F)CC2)cnn1CCC(F)(F)F (single isomer, unassigned) [Example 54, N—((S)-(7-((R*)-Cyclopropyl(4,4,4-trifluorobutanamido)methyl)imidazo[1,2-b]pyridazin-2-yl)(4,4-difluorocyclohexyl)methyl)-5-methyl-1-(3,3,3-trifluoropropyl)-1H-pyrazole-4-carboxamide]	320 nM	–	710 nM
O=C(CCC(F)(F)F)NC(c1cnn2cc([C@@H](NC(=O)c3cnnn3CCC(F)(F)F)C3CCC(F)(F)CC3)nc2c1)C1CC1 (single isomer, unassigned) [Example 71, N—((S)-(7-((R*)-Cyclopropyl(4,4,4-trifluorobutanamido)methyl)imidazo[1,2-b]pyridazin-2-yl)(4,4-difluorocyclohexyl)methyl)-1-(3,3,3-trifluoropropyl)-1H-1,2,3-triazole-5-carboxamide]	100 nM	180 nM	–
O=C(CC1CC(F)(F)C1)NC(c1cnn2cc([C@@H](NC(=O)c3cnnn3CCC(F)(F)F)C3CCC(F)(F)CC3)nc2c1)C1CC1 (single isomer, unassigned) [Example 72, N—((S)-(7-((S*)-Cyclopropyl(2-(3,3-difluorocyclobutyl)acetamido)methyl)imidazo[1,2-b]pyridazin-2-yl)(4,4-difluorocyclohexyl)methyl)-1-(3,3,3-trifluoropropyl)-1H-1,2,3-triazole-5-carboxamide]	78 nM	–	86 nM
O=C(CC1CC(F)(F)C1)NC(c1cnn2cc([C@@H](NC(=O)c3cnnn3CCC(F)(F)F)C3CCC(F)(F)CC3)nc2c1)C1CC1 (single isomer, unassigned) [Example 73, N—((S)-(7-((R*)-Cyclopropyl(2-(3,3-difluorocyclobutyl)acetamido)methyl)imidazo[1,2-b]pyridazin-2-yl)(4,4-difluorocyclohexyl)methyl)-1-(3,3,3-trifluoropropyl)-1H-1,2,3-triazole-5-carboxamide]	1900 nM	–	~15000 nM
CC(n1nccc1C(=O)N[C@H](c1cn2ncc([C@H](NC(=O)CCC(F)(F)F)C3CC3)cc2n1)C1CCC(F)(F)CC1)C(F)(F)F (single isomer, unassigned) [Example 115, N—((S)-(7-((R)-Cyclopropyl(4,4,4-trifluorobutanamido)methyl)imidazo[1,2-b]pyridazin-2-yl)(4,4-difluorocyclohexyl)methyl)-1-((R*)-1,1,1-trifluoropropan-2-yl)-1H-pyrazole-5-carboxamide]	190 nM	140 nM	–
CC(n1nccc1C(=O)N[C@H](c1cn2ncc([C@H](NC(=O)CCC(F)(F)F)C3CC3)cc2n1)C1CCC(F)(F)CC1)C(F)(F)F (single isomer, unassigned) [Example 116, N—((S)-(7-((R)-Cyclopropyl(4,4,4-trifluorobutanamido)methyl)imidazo[1,2-b]pyridazin-2-yl)(4,4-difluorocyclohexyl)methyl)-1-((S*)-1,1,1-trifluoropropan-2-yl)-1H-pyrazole-5-carboxamide]	100 nM	–	210 nM
CC(C)n1nccc1C(=O)N[C@H](c1cn2ncc([C@H](NC(=O)CC(C)C(F)(F)F)C3CC3)cc2n1)C1CCC(F)(F)CC1 (single isomer, unassigned) [Example 121, N—((S)-(7-((R)-Cyclopropyl((R*)-4,4,4-trifluoro-3-methylbutanamido)methyl)imidazo[1,2-b]pyridazin-2-yl)(4,4-difluorocyclohexyl)methyl)-1-isopropyl-1H-pyrazole-5-carboxamide]	88 nM	110 nM	–
